Measurements from patent publication US11986000B2, “Whey protein extracts and their use as sphingomyelin source” (SOCIETE DES PRODUITS NESTLE S.A., priority 2017, dated 2024).

Test: Determination of total SM in raw materials and finished product by HPLC-ELSD
Settings: analysed versus theoretical SM in infant formula powders
Method: 1.2. Determination of Total SM in Raw Materials and Finished Product by HPLC-ELSD
Calibration standard stock solution was prepared by dissolving 140 mg of certified milk lecithin and 10 mg of PG (internal standard) in 100 mL of chloroform/methanol (9/1, v/v) solution. Further dilutions of this solution was performed in chloroform/methanol (9/1, v/v) to yield six standard levels, ranging from 0.012 to 0.249 g L−1 for SM and 0.005 to 0.100 g L^−1 for PG.
Sample extraction and chromatographic analysis, including chromatography columns and detector settings, were completed according to the procedure as described by Braun et al. (2010) with the following minor modifications. […] EZChrom software package (Agilent Technologies) was used to control the chromatograph and results were analysed using OpenLab software (Agilent Technologies).
SM was identified within the certified milk lecithin based on peak location in the elution sequence, retention time and characteristic peak shape, as described by Braun et al. (2010). […] A six-point calibration curve was prepared for both SM ([…], R^2=:=::0.996) and PG (0.025-0.507 g L^−1, R^2=:=::0.996) for quantification. […] Quantification of SM was as described by Braun et al. (2010) using the following equation: […]

Stability of SM during the manufacturing processes: stable against degradation
Substance: sphingomyelin [SM]
